Several values for one entry are separate records, joined by “and”; a condition that tells them apart may be missing. Identical values can stand only once.
Assays:
[1] = Double-blind randomised clinical study: sitting blood pressure and heart rate; type: in vivo, patients; settings: for patients who attained a blood pressure <140/<90 mm Hg: after one year; for SBP, mean change / DBP, mean change / Heart rate, mean change: sitting, mean (SD)
Experimental: (§1) A clinical study was performed. It was a study with a double-blind, randomised, controlled, parallel group design.
For inclusion, sitting blood pressure should be in the range of 140-179 and/or 90-104 mm Hg (mean of two measurements according to standardised procedures [1999 World Health Organization (WHO)—International Society of Hypertension Guidelines for the Management of Hypertension. Journal of Hypertension 1999; 17; 151-83] and at two visits) on placebo treatment and after the patients had been subjected to non-pharmacological treatment, as recommended [The Swedish Council on Technology Assessment in Health Care (SBU). Moderately elevated blood pressure. J Intern Med 1995; 238(Suppl 737): S1-S128; 1999 World Health Organization (WHO)—International Society of Hypertension Guidelines for the Management of Hypertension. Journal of Hypertension 1999; 17; 151-83] for one month or longer. Since the non-pharmacological intervention had been introduced before the start of the study and then maintained, its effect on metabolic variables during the study was minimal.
(§2) After four weeks of single-blind treatment with placebo, the patients were randomised to double-blind treatment with either candesartan cilexetil 16 mg or hydrochlorothiazide 25 mg and followed for one year. If sitting systolic or diastolic blood pressure was above target pressure (<130/<85 mmHg, for patients below 65 years, or <140/<90 mmHg, if 65 years or older) [1999 World Health Organization (WHO)—International Society of Hypertension Guidelines for the Management of Hypertension. Journal of Hypertension 1999; 17; 151-83] at any visit during the treatment period, double-blind treatment with felodipine extended-release 2.5-5.0 mg was added to the candesartan group and atenolol 50-100 mg was added to the hydrochlorothiazide group. No further antihypertensive treatment was allowed. Two patients were withdrawn from the study, both in the candesartan cilexetil group, since their blood pressure exceeded the pre-specified safety level (≧180 and/or ≧105 mm Hg, mean of two recordings at different visits).
(§3) Efficacy variables were analysed using analysis of covariance (ANCOVA) with treatment and health centre as factors and baseline value as covariate. Difference in treatment effect was estimated with 95% confidence interval. To test difference between treatments in change of biochemistry variables the Wilcoxon Rank Sum test was used. […] In this approach all randomised patients who had completed the study and had taken at least one dose of study drug were included.

[2] = Clinical study: plasma triglycerides; type: in vivo; settings: individual patients of the candesartan cilexetil group with metabolic syndrome at baseline but not after 12 months
Experimental: as §1
After four weeks of single-blind treatment with placebo, the patients were randomised to double-blind treatment with either candesartan cilexetil 16 mg or hydrochlorothiazide 25 mg and followed for one year. If sitting systolic or diastolic blood pressure was above target pressure (<130/<85 mmHg, for patients below 65 years, or <140/<90 mmHg, if 65 years or older) [1999 World Health Organization (WHO)—International Society of Hypertension Guidelines for the Management of Hypertension. […]
Total plasma cholesterol, LDL-cholesterol, HDL-cholesterol and triglycerides were determined in all patients at randomisation (n=392), and in most patients after six months (n=354), and after 12 months (n=352). Total plasma cholesterol and triglycerides concentrations were determined enzymatically. HDL-cholesterol was measured after the precipitation of apolipoprotein B-containing lipoproteins in whole plasma by heparin-manganese chloride [Lipid Research Clinics Program: Manual of Laboratory Operations, Bethesda, Md.: National Institutes of Health, Vol 1. […] Their LDL cholesterol levels were not calculated.

[3] = Clinical study: fasting serum insulin and plasma glucose; type: in vivo, patients; settings: for P-glucose, At 12 months / S-insulin, At 12 months / S-insulin/P-glucose, At 12 months: at 12 months of treatment; for P-glucose, At 12 months / S-insulin, At 12 months / P-glucose, Baseline / S-insulin, Baseline: fasting; for P-glucose, At 12 months / S-insulin, At 12 months / S-insulin/P-glucose, At 12 months / P-glucose, Baseline / S-insulin, Baseline / S-insulin/P-glucose, Baseline / P-glucose, Mean change at 12 months / S-insulin, Mean change at 12 months / S-insulin/P-glucose, Mean change at 12 months: mean (SD); for P-glucose, Baseline / S-insulin, Baseline / S-insulin/P-glucose, Baseline: baseline (before randomised treatment); for P-glucose, Mean change at 12 months / S-insulin, Mean change at 12 months / S-insulin/P-glucose, Mean change at 12 months: change from baseline to 12 months; for Fasting levels of both serum insulin and plasma glucose during treatment: result in words, 12 months treatment
Experimental: The fasting plasma glucose level is defined as the concentration of glucose in the plasma of a subject after an overnight's fast. Patients were instructed not to eat breakfast on the morning of the follow-up visits.
as §1, §2
Analyses of plasma glucose were carried out at the Department of Clinical Chemistry, Umeå University Hospital. Plasma glucose was routinely analysed by Vitros 950 glucose oxidase method (Ortho Clinical Diagnostics).
as §3

[4] = Clinical study: metabolic syndrome diagnosed according to WHO criteria; type: in vivo, patients; settings: n = 196 per group
Experimental: as §1, §2
The metabolic syndrome was diagnosed according to the following criteria [World Health Organization (WHO). Department of Noncommunicable Disease Surveillance. Geneva: WHO 1999 pp 1-59]: • 1. Fasting plasma glucose above 6.1 mmol/L • 2. Blood pressure above 140/90 mm Hg • 3. One or more of the following: • a. plasma triglycerides above 1.7 mmol/L and/or HDL below 0.9 mmol/L (men), below 1.0 mmol/L (women) • b. Body mass index above 30 kg/m^2 Statistical Analyses

[5] = at 6 months, hypertensive patients, candesartan cilexetil 16 mg (+ felodipine if needed) or HCTZ 25 mg (+ atenolol if needed)

SMILES | patients who attained a blood pressure <140/<90 mm Hg [1] | SBP, mean change [1, 5] | DBP, mean change ([1]; at 6 months, same regimens) | Heart rate, mean change ([1]; at 6 months, same regimens) | DBP, mean change ([1]; at 12 months, same regimens) | Heart rate, mean change ([1]; at 12 months, same regimens) | SBP, mean change ([1]; at 12 months, same regimens) | P-glucose, At 12 months [3] | S-insulin, At 12 months [3] | S-insulin/P-glucose, At 12 months [3] | P-glucose, Baseline [3] | S-insulin, Baseline [3] | S-insulin/P-glucose, Baseline [3] | P-glucose, Mean change at 12 months [3] | S-insulin, Mean change at 12 months [3] | S-insulin/P-glucose, Mean change at 12 months [3] | Fasting levels of both serum insulin and plasma glucose during treatment [3] | patients suffering from the metabolic syndrome as defined by WHO ([4]; at base-line) | further results
CCOc1nc2cccc(C(=O)OC(C)OC(=O)OC3CCCCC3)c2n1Cc1ccc(-c2ccccc2-c2nn[nH]n2)cc1 (centres unmarked) [Candesartan cilexetil, candesartan cilexetil] | 65% | −20.9 (13.1) mm Hg | −12.8 (6.9) mm Hg | −2.1 (8.4) bpm | −13.0 (7.4) mm Hg | −2.2 (8.4) bpm | −21.0 (15.2) mm Hg | 5.10 (0.57) mmol/L | 8.96 (5.42) mlU/L | 1.76 (1.06) | 5.17 (0.58) mmol/L | 9.25 (7.90) mlU/L | 1.77 (1.38) | −0.06 (0.46) mmol/L | −0.30 (6.50) mlU/L | −0.00 (1.23) | unaffected | 13 patients | Triglycerides, 12 months ([2]; after 12 months): 1.59 mmol/L and 1.44 mmol/L and 1.28 mmol/L; Triglycerides, Baseline ([2]; baseline): 2.15 mmol/L and 2.34 mmol/L and 2.65 mmol/L; Fasting glucose, 12 months ([3]; individual patients 1-8 of the candesartan cilexetil group with metabolic syndrome at baseline but not after 12 months, after 12 months): 5.5 mmol/L and 5.7 mmol/L (2×) and 5.6 mmol/L and 5.2 mmol/L and 6.0 mmol/L and 5.9 mmol/L; Fasting glucose, Baseline ([3]; individual patients 1-8 of the candesartan cilexetil group with metabolic syndrome at baseline but not after 12 months, baseline): 6.1 mmol/L and 6.5 mmol/L and 6.2 mmol/L (4×) and 6.4 mmol/L
NS(=O)(=O)c1cc2c(cc1Cl)NCNS2(=O)=O [HCTZ, hydrochlorothiazide] | 62% | −23.9 (13.0) mm Hg | −13.9 (7.1) mm Hg | −6.8 (10.1) bpm | −12.9 (7.7) mm Hg | −7.3 (9.4) bpm | −22.8 (14.9) mm Hg | 5.42 (0.89) mmol/L | 11.00 (6.88) mlU/L | 2.03 (1.23) | 5.29 (0.98) mmol/L | 9.65 (6.09) mlU/L | 1.83 (1.10) | 0.13 (0.69) mmol/L | 1.35 (6.09) mlU/L | 0.20 (1.13) | increased | 12 patients | patients suffering from the metabolic syndrome as defined by WHO ([4]; at 12 months, p=0.007 between groups): 18 patients
